Patent publication US7238469B2, “Carbon monoxide improves outcomes in tissue and organ transplants and suppresses apoptosis” (priority 2001, dated 2007)

How the values were obtained:
βTC3 cells = assay: DNA fragmentation analysis (FACScan) of βTC3 treated with TNF-α; assay type: cell-based, murine; details: exogenous CO 1% for 24 hours
Experimental: (§1) βTC3 cultures were incubated with recombinant TNF-α (500 or 1000 U/ml) (R&D Systems) for 24 hours and islet cultures were stimulated with TNF-É (5000 U/ml) (R&D Systems) and cyclohexamide (CHX) (50 μg/ml) for 48 hours. βTC3 or islets were harvested, dispersed, fixed in 70% ethanol, and suspended in DNA staining buffer (PBS, pH 7.4, containing 0.1% Triton X-100, 0.1 mM EDTA, 50 μg/ml propidium iodide, […] Rnase A). DNA content was analyzed on a FACScan™ analyzer equipped with Cell QuestO Software (Becton Dickinson, Palo Alto, Calif.). Cells with a normal DNA content (2N) were scored as viable, whereas cells with a hypoploid DNA content (<2N, termed A^0) were scored as apoptotic. To exclude debris and apoptotic cell-free fragments, all events with an FL-2 area profile below that of chicken erythrocyte nuclei were excluded from analysis.
Cells and islets were exposed to 1% carbon monoxide in compressed air balanced with 5% CO2, as described elsewhere (see, e.g., Otterbein et al., Nature Med. 6:422–428, 2000). […]
Whether exogenous carbon monoxide could protect β-cells from apoptosis was investigated (FIGS. 2A–C). […] After 24 hours cells were stained by propidium iodide and analyzed for DNA fragmentation on a FACScan™. […]

[1] = test system: murine islets of Langerhans; assay: DNA fragmentation analysis (FACScan) of murine islets stimulated with TNF-α and cycloheximide; assay type: cell-based, C57BL/6 mice; details: isolated murine islets; TNF-α plus cycloheximide; CO 1% for 24 hours; analysed after 48 hours
Experimental: as §1
Cells and islets were exposed to 1% carbon monoxide in compressed air balanced with 5% CO2, as described elsewhere (see, e.g., Otterbein et al., Nature Med. 6:422–428, 2000). Islets were incubated in RPMI medium pre-saturated with carbon monoxide (4° C. overnight, 1% CO, 5% CO2) for two hours at 37° C. while treatment with 1% CO, 5% CO2 was continued.
Whether exogenous carbon monoxide protects murine islet cells from apoptosis was also investigated (FIG. 3). […] After 48 hours cells were analyzed on a FACScan™ for DNA fragmentation. […]

[2] = test system: mouse hearts transplanted into rats; assay: Histomorphometric analysis of infarcted area in transplanted hearts; assay type: in vivo, BALB/c mouse hearts, Lewis rats; details: 3 days after transplantation; SnPPIX treated rats that received exogenous CO
From the text: Grafts were harvested 3 days after transplantation, […], and serially sectioned (5 îm) in toto from the apex to the base. Ten sections were placed per slide in a total of about 20–25 slides. Every fifth slide was stained with hematoxylin and eosin (H&E) for histomorphometric analysis. Two images per slide were captured by using a Nikon Eclipse E600O microscope (Nikon, Melville, N.Y.) connected to a Hitachi 3-CCD Color Camera (model HV-C20; Hitachi, Tokyo, Japan) and to a Power MacintoshO 7300/200 computer (Apple Computer, Cupertino, Calif.) equipped with IPLab Spectrum digital imaging software (Signal Analytics Corporation, Vienna, Va.). About 50 images were captured from each transplanted heart from two to three animals per group. Images were analyzed by manual segmentation, tracing the infarcted and noninfarcted areas from the right and left ventricles in each section. Areas corresponding to infarcted and noninfarcted tissue were calculated by digital imaging software as number of pixels corresponding to those areas. Infarcted and noninfarcted areas were then calculated as percentage of total area. Pooled data for each group, expressed as area in pixels or as percentage of infarction, was analyzed by using ANOVA. […] Results are expressed as mean=SD. […]

[3] = water at 0° C.; cited from earlier work
HO-1 = assay: Western blot of HO-1 expression in cultured endothelial cells; assay type: cell-based, mouse; details: data not shown
Experimental: Endothelial cells were washed in PBS (pH 7.2), harvested by scraping, and lysed in Laemmli buffer. Electrophoresis was conducted under denaturing conditions with 10% polyacrylamide gels. Proteins were transferred onto a polyvinyldifluoridine membrane (immobilon P; Millipore, Bedford, Mass.) by electroblotting and detected with rabbit polyclonal Abs directed against human HO-1 or HO-2 (StressGen, Victoria, Canada) or é-tubulin (Boehringer Mannheim, Mannheim, Germany). Proteins were visualized by using HRP-conjugated donkey anti-rabbit IgG or goat anti-mouse IgG (Pierce) and the ECL assay (Amersham Life Science, Arlington Heights, Ill.) according to manufacturer's instructions.

SMILES | apoptotic cells (DNA fragmentation analysis) (βTC3 cells) | apoptotic cells (DNA fragmentation analysis) [1] | infarction of the left ventricle [2] | infarction of the right ventricle [2] | saturation point [3] | expression of HO-1 in cultured endothelial cells (HO-1)
[C-]#[O+] [CO, carbon monoxide] | 11.7% | 11.7% | 1.8±3.4% | 8.4±5.3% | about 0.0044 g CO/100 g medium | –
C=Cc1c2[n-]c(c1C)/C=c1\[n-]/c(c(C)c1C=C)=C\c1[n-]c(c(CCC(=O)O)c1C)C=c1[n-]/c(c(C)c1CCC(=O)O)=C\2.[Sn+4] [SnPPIX, tin protoporphyrin IX] | – | – | – | – | – | up-regulated the expression of HO-1
